Data taken from patent US20020035100A1, “Alkyl ether modified polycyclic compounds having a terminal phenol and uses for protection of cells” (priority 2000, published 2002).
Entries after “also recorded” stand apart in the source; their conditions may differ.

Legend:
HT-22 cells = assay: Cytoprotection of HT-22 cells against glutamate exposure (calcein AM cell viability); format: cell-based, Mouse; settings: for activity compared with 4c and 4e: at 10 μM; for cytoprotection (result in words): tested at 0.01-10 μM; for neuroprotection: at 10 μM and 1 μM
Experimental: Mouse clonal hippocampal HT-22 cells were cultured in DMEM media supplemented with 10% fetal bovine serum under standard cell culture conditions. All wells in the 96 well culture plate contained approximately 5,000 HT-22 cells as determined by a Neubauer hemacytometer and the cells were incubated for 24 hrs before the compounds were added. The estradiol derivatives were purified recrystallization or column chromatography and were free from (1) as determined by HPLC. All agents were dissolved in absolute ethanol and diluted, with the culture media, to a final concentration of 0.01 μM; 0.1 μM; 1.0 μM; and 10 μM in their respective wells. The cells were further incubated for 24 hrs before sodium glutamate in a solution of phosphate buffer was added. Cell viability was quantified 2 hrs later by the calcein AM assay (Green, P. S., E. J.Perez, T. Calloway and J. W. Simpkins: (2000), Journal of Neurocytology, Vol. 29, pp. 419-423) in a phosphate buffer solution.
ANOVA was used to determine the significance of differences among groups. Comparison between groups were done using the Tukey test. Ap<0.05 was considered significant.

ERα = target: T1, ERα (Homo sapiens, UniProt P03372); assay: Estrogen receptor binding, displacement of radiolabeled 17β-estradiol; design: dose or concentration left out as unconfirmed; settings: human cloned ERα, 17β-estradiol assigned 1; <0.01 = no evidence of binding
T1 sequence (P03372 1-595): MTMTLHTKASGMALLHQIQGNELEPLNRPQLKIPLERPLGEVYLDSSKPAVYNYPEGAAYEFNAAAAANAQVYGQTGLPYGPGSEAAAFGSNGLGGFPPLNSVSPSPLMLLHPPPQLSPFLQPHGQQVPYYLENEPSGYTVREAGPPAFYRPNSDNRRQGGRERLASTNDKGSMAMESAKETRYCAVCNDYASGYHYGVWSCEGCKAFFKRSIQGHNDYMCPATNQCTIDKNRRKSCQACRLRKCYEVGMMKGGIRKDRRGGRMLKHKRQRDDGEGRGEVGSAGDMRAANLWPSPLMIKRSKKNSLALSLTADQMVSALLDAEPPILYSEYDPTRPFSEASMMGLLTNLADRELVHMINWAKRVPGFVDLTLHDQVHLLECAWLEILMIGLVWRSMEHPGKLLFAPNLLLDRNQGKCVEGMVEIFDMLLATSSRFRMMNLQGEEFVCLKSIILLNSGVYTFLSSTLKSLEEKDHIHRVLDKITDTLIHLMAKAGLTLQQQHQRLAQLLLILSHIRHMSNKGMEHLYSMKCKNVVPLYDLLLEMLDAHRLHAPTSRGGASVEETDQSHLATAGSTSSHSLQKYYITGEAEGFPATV

ERβ = ERβ (Homo sapiens, UniProt Q92731); assay: Estrogen receptor binding, displacement of radiolabeled 17β-estradiol; design: dose or concentration left out as unconfirmed; settings: human cloned ERβ, 17β-estradiol assigned 1; <0.01 = no evidence of binding
ERβ, sequence (Q92731 whole entry): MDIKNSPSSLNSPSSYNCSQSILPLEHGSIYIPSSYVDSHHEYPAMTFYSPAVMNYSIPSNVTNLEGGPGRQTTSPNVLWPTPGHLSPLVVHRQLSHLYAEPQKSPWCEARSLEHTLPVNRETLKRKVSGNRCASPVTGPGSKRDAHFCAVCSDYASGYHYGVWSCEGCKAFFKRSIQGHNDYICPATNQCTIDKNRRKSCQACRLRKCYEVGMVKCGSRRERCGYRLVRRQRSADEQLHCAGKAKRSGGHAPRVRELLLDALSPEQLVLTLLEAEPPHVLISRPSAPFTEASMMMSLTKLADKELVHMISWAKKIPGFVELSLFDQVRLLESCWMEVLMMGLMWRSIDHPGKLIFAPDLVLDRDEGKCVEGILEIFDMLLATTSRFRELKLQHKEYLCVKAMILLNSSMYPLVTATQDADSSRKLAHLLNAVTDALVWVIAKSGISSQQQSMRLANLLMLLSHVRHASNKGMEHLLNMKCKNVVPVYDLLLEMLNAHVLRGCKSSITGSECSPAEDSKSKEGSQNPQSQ

Compound | cytoprotection (result in words) (HT-22 cells) | ERα BINDING (Relative to E2) (ERα) | melting point [°C] | also measured
C[C@]12CC[C@@H]3c4ccc(O)cc4CC[C@H]3[C@@H]1CC[C@@H]2O [Compound 1, 17β-estradiol, reference compound] | effective only at 10 μM |  |  | activity compared with 4c and 4e (HT-22 cells): less active then 4c and 4e
CO[C@H]1CC[C@H]2[C@@H]3CCc4cc(O)ccc4[C@H]3CC[C@]12C [Compound 4a, 17β-Methoxyestra-1,3,5(10)-trien-3-ol] | inactive; also recorded: ineffective even at 10 μM |  |  | activity compared with 4c and 4e (HT-22 cells): less active then 4c and 4e; cytoprotection (result in words) (HT-22 cells; listed as 17β-methylestradiol): effective only at 10 μM
CCO[C@H]1CC[C@H]2[C@@H]3CCc4cc(O)ccc4[C@H]3CC[C@]12C [Compound 4b, 17β-Ethoxyestra-1,3,5(10)-trien-3-ol] |  | <0.01 |  | 
CCCO[C@H]1CC[C@H]2[C@@H]3CCc4cc(O)ccc4[C@H]3CC[C@]12C [Compound 4c, 17β-Propoxyestra-1,3,5(10)-trien-3-ol] |  | <0.01 |  | 
CCCCO[C@H]1CC[C@H]2[C@@H]3CCc4cc(O)ccc4[C@H]3CC[C@]12C [Compound 4d, 17β-Butoxyestra-1,3,5(10)-trien-3-ol] |  |  | 77 to 81 | 
CCCCCCO[C@H]1CC[C@H]2[C@@H]3CCc4cc(O)ccc4[C@H]3CC[C@]12C [Compound 4e, 17β-Hexyloxyestra-1,3,5(10)-trien-3-ol] | active |  |  | neuroprotection (HT-22 cells): neuroprotective to a similar extent
CCCCCCCCO[C@H]1CC[C@H]2[C@@H]3CCc4cc(O)ccc4[C@H]3CC[C@]12C [Compound 4f, 17β-Octyloxyestra-1,3,5(10)-trien-3-ol] |  | <0.01 |  | ERβ BINDING (Relative to E2) (ERβ): <0.01; neuroprotection (HT-22 cells): neuroprotective to a similar extent
CCCCOc1ccc2c(c1)CC[C@@H]1[C@@H]2CC[C@]2(C)[C@@H](O)CC[C@@H]12 [Compound 5b, 3-Butoxyestra-1,3,5(10)-trien-17β-ol] | ineffective |  | 86 to 88 | 
CCCCCCCCOc1ccc2c(c1)CC[C@@H]1[C@@H]2CC[C@]2(C)[C@@H](O)CC[C@@H]12 [Compound 5c, 3-Octyloxyestra-1,3,5(10)-trien-17β-ol] | ineffective |  | 64 to 66 | 
